Laboratory results as given in US20210348171A1, “PHARMACOPROTEOMICS PLATFORM IDENTIFYING KINOME FEATURES REGULATING DRUG RESPONSE IN CANCER” (University of Washington, priority 2020, published 2021).

Columns and labels:
Assay type in all cases: cell-based, Human
SNU449 cells = test: Inhibitor co-treatment growth inhibition (WZ4003 with AZD7762 or dinaciclib); details: for decrease of EC50 on cotreatment with WZ4003: cotreatment with NUAK1/2 inhibitor WZ4003, 72 h, n=4; for dose dependence of the cotreatment effect: AZD7762 plus WZ4003
Excerpt: To identify combinatorial treatment strategies targeting mesenchymal and drug resistant HCC cells, the next step was to analyze drug sensitivity pathways that become activated upon AXL and NUAK1/2 inhibition and EMT reversal. […] It was also observed increased cell cycle activity among epithelial lines in the 17 HCC line panel (FIG. 9B), that was accompanied by elevated activity of kinases promoting DDR signaling and cell survival under conditions of replication stress. For instance, activation of CHEK1 and 2 along with increased phosphorylation of ATR, CHEK1/2 and WEE1 substrates were observed (FIGS. 4A and 9C). Similarly, AXL RNAi in FOCUS cells activated the DDR kinases CHEK1 and WEE1, increasing phosphorylation of their substrates CDK11B and CDK2 (FIGS. 4B and 9D). […] It was reasoned, therefore, that combinatorial inhibition of AXL or NUAK1/2, as well as cell cycle checkpoint kinases could efficiently kill mesenchymal HCC cells (FIG. 4D). To test this strategy, the mesenchymal and drug resistant SNU449 line was cotreated with the selective NUAK1/2 inhibitor WZ4003 (Banerjee, S., et al. (2014). Characterization of WZ4003 and HTH-01-015 as selective inhibitors of the LKB1-tumour-suppressor-activated NUAK kinases. Biochem J 457, 215-225, incorporated herein by reference in its entirety) and the CHEK1/2 inhibitor AZD7762. Additionally, the CDK inhibitor dinaciclib was used to test if elevated, EMT state-dependent, cell cycle activity translates into increased efficacy of such drugs. […] These encouraging results led to establishment of SNU449 NUAK1 or NUAK2 RNAi cells (FIG. 9E). Gratifyingly, treating SNU449 NUAK RNAi cells and WT controls with varying doses of AZD7762 and dinaciclib recapitulated the drug co-treatment results (˜3- to 4-fold decrease in EC50s, FIG. 4H). To consolidate these findings, the FOCUS NUAK and AXL RNAi cell lines were tested against AZD7762 and dinaciclib. As in SNU449 cells, NUAK1/2 RNAi FOCUS cells were sensitized to kinase inhibition up to ˜5-fold (FIG. 4I).
1800 cells/well were seeded onto white flat bottom half area 96-well plates (Greiner Bio-One, Kremsmuenster, AT) in 50 μl of growth medium and allowed to attach in an incubator for 24 h. Then the drugs in DMSO and/or DMSO vehicle controls as 11× solutions in growth medium were added to a total volume of 55 μl and 0.1% DMSO final. The cells were grown in an incubator for another 72 h. Then, 55 μl of CellTiter-Glo 2.0 (Promega, Madison, Wis.) reagent/well were added according to the manufacturer's instructions and luminescence was quantified with a SpectraMax 190 plate reader (Molecular Devices, San Jose, Calif.). The CHEK1/2 inhibitor AZD7762 (Selleckchem, Houston, Tex.) and the NUAK1/2 inhibitor WZ4003 (Tocris Bioscience, Minneapolis, Minn.) were applied at 8 different concentrations between 10 μM and 4.6 nM (3-fold dilution steps) and Dinaciclib (Selleckchem) was applied at 8 different concentrations between 1 μM and 0.5 nM (3-fold dilution steps). Experiments were performed in four biological replicates. Growth inhibition curves were fitted using the GraphPad Prism software package (V5.0a) with a least-squares nonlinear regression model for curve fitting (One site-Fit log IC50 function).

[1] = system: FOCUS, SKHep1, SNU761 RNAi lines; test: Drug synergy in AAK1, RALBP1, REPS1, REPS2 knockdown lines (Cell Titer Glo 2.0); details: RNAi lines vs scramble control, 72 hours
Excerpt: (1) Kinases and their interaction partners are depleted from cell lines using either small hairpin RNAs (shRNAs) or CRISPR/Cas9 knockout. […] This assay aims to discover drug synergies that may be exploited to develop novel combination therapies.
The next step was to assess the ability of an AAK1 knockdown to sensitize the cells to extant KI targeting therapeutics.

[2] = system: mesenchymal HCC cells with CAMK1D shRNAi knockdown; test: Drug sensitization in CAMK1D knockdown lines (Cell Titer Glo 2.0); details: RNAi lines vs scramble control, 72 hours
Excerpt: The approach to validate the role AAK1 is represented schematically in FIG. 10A. As illustrated, the general workflow pipeline is to test the biological function of kinases and their interaction partners function in EMT and cancer therapy resistance. (1) Kinases and their interaction partners are depleted from cell lines using either small hairpin RNAs (shRNAs) or CRISPR/Cas9 knockout. (2) Effects of RNAi knockdown (KD) or CRISPR knockout (KO) are quantified on cellular signaling pathways using unbiased MS-based kinome-centric and global proteome and phosphoproteome profiling. (3) KD/KO effects on EMT state are studied by quantifying 12 well-known EMT and stemness markers such as CDH1, VIM, SNAI2 and TWIST1 using qPCR and western blotting. (4) KD/KO effects are confirmed/determined on cancer therapy resistance by treating KD/KO cell lines with 15 clinical and pre-clinical HCC drugs, quantifying cell viability using the Promega Cell Titer Glo 2.0 assay. […] (5) KD/KO effects are measured on cell migration and invasion by conducting trans-well migration and wound scratch assays. […]
Further analyses of CAMK1D were conducted to further investigate its role in EMT and potential therapeutic target. […] Phosphoproteins were quantified using global MS-based phosphoproteomics according to our previously published protocol. […]

SMILES | decrease of EC50 on cotreatment with WZ4003 (SNU449 cells) [fold] | effect of knockdown of AAK1 and interaction partners on drug treatment [1] | effect of CAMK1D knockdown on drug treatment [2] | dose dependence of the cotreatment effect (SNU449 cells) | significance of the cotreatment effect at low WZ4003 (SNU449 cells; 1 μM of WZ4003 with AZD7762)
CCc1cnn2c(NCc3ccc[n+]([O-])c3)cc(N3CCCC[C@H]3CCO)nc12 [dinaciclib, Dinaciclib] | ~2 |  |  |  | 
NC(=O)Nc1cc(-c2cccc(F)c2)sc1C(=O)N[C@H]1CCCNC1 [AZD7762] | ~3 | sensitizes | sensitizes | dose-dependent | 
O=c1[nH]c2ccc(Cl)cc2c(N[C@@H]2CN3CCC2CC3)c1-c1nc2ccccc2[nH]1 [CHIR-124] |  | sensitizes | sensitizes |  | 
CCC(=O)Nc1cccc(Oc2nc(Nc3ccc(N4CCN(C)CC4)cc3OC)ncc2Cl)c1 [WZ4003] |  |  |  | dose-dependent | still significant
